Source: ChEMBL document CHEMBL1201862, “PubChem BioAssay data set” (2004)
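In this assay, cells in 96-well plates receive the compound at five concentrations for 48 hours. Endpoints are linearly interpolated between the surrounding concentrations. Abbreviation: GI50, concentration required for 50% inhibition of growth.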 Active and inactive are the calls of the source. Rule as the data show it: active = GI50 up to about 1.1 µM and inactive = higher.

Experiments:
Test in all cases: NCI anticancer screen, dose series, 48 h
MOLT-4 = test system: MOLT-4
NCI/ADR-RES = test system: NCI/ADR-RES
HOP-62 = test system: HOP-62
EKVX = test system: EKVX
OVCAR-5 = test system: OVCAR-5
IGROV-1 = test system: IGROV-1
CAKI-1 = test system: CAKI-1
COLO 205 = test system: COLO 205
UO-31 = test system: UO-31
NCI-H522 = test system: NCI-H522
A498 = test system: A498
MDA-MB-435 = test system: MDA-MB-435
ACHN = test system: ACHN
UACC-62 = test system: UACC-62
SF-268 = test system: SF-268
786-0 = test system: 786-0
HCT-15 = test system: HCT-15
HCT-116 = test system: HCT-116
NCI-H226 = test system: NCI-H226
RXF 393 = test system: RXF 393

Row | Structure (SMILES) | GI50 (MOLT-4) | GI50 (NCI/ADR-RES) | GI50 (HOP-62) | GI50 (EKVX) | GI50 (OVCAR-5) | GI50 (IGROV-1) | GI50 (CAKI-1) | GI50 (COLO 205) | GI50 (UO-31) | GI50 (NCI-H522) | GI50 (A498) | GI50 (MDA-MB-435) | GI50 (ACHN) | GI50 (UACC-62) | GI50 (SF-268) | GI50 (786-0) | GI50 (HCT-15) [µM] | GI50 (HCT-116) | GI50 (NCI-H226) | GI50 (RXF 393)
1 | Cc1cc(C)nc(NS(=O)(=O)c2ccc(Nc3c4ccccc4nc4c(C(=O)NCCO)cccc34)cc2)n1 | 4.79 µM (inactive) | 48.5 µM (inactive) | 9.31 µM (inactive) | 41.5 µM (inactive) | 24.5 µM (inactive) | 25.8 µM (inactive) | 23.3 µM (inactive) | 15.1 µM (inactive) | > 10 µM (inactive) | 12.3 µM (inactive) | 38.5 µM (inactive) | 16.6 µM (inactive) | 19.7 µM (inactive) | 21.5 µM (inactive) | 14.5 µM (inactive) | > 10 µM (inactive) | 17.8 | – | – | –
2 | O=C(CC(C(=O)c1cccs1)c1ccsc1)c1ccc(Cl)s1 (centres undefined) | 47.3 µM (inactive) | 12.1 µM (inactive) | > 100 µM (inactive) | 50.7 µM (inactive) | 31.4 µM (inactive) | > 100 µM (inactive) | > 100 µM (inactive) | > 100 µM (inactive) | 36.6 µM (inactive) | – | > 100 µM (inactive) | 85.7 µM (inactive) | 96.2 µM (inactive) | 99.3 µM (inactive) | > 100 µM (inactive) | > 100 µM (inactive) | 73.3 | 47.5 µM (inactive) | > 100 µM (inactive) | –
3 | Clc1sc(Cl)c2c1[C@@H](Cl)C[C@@H]2Br | 18.6 µM (inactive) | – | > 100 µM (inactive) | > 100 µM (inactive) | > 100 µM (inactive) | 72.9 µM (inactive) | > 100 µM (inactive) | > 100 µM (inactive) | > 100 µM (inactive) | 30.8 µM (inactive) | – | 40.6 µM (inactive) | > 100 µM (inactive) | 68.2 µM (inactive) | > 100 µM (inactive) | > 100 µM (inactive) | 97.1 | > 100 µM (inactive) | – | 78.3 µM (inactive)
4 | c1ccc2c(c1)SCCCSCCSCCCS2 | > 100 µM (inactive) | > 100 µM (inactive) | > 100 µM (inactive) | 99.8 µM (inactive) | > 100 µM (inactive) | > 100 µM (inactive) | – | > 100 µM (inactive) | 60.5 µM (inactive) | > 100 µM (inactive) | – | > 100 µM (inactive) | – | > 100 µM (inactive) | > 100 µM (inactive) | > 100 µM (inactive) | > 100 | > 100 µM (inactive) | – | –
5 | CN(CCNC(=O)c1cn(C)c2c1ccc1ccccc12)CCNC(=O)c1cn(C)c2c1ccc1ccccc12 | 2.55 µM (inactive) | 7.82 µM (inactive) | 1.85 µM (inactive) | 2.37 µM (inactive) | 1.69 µM (inactive) | 1.62 µM (inactive) | 2.47 µM (inactive) | – | 1.91 µM (inactive) | – | 10.6 µM (inactive) | 2.2 µM (inactive) | 3.36 µM (inactive) | 2.7 µM (inactive) | 2.69 µM (inactive) | 2.04 µM (inactive) | 1.26 | 1.99 µM (inactive) | 5.55 µM (inactive) | –
6 | Cc1cccc(C(C)C)c1N1C(=O)C(=O)C(c2nc3ccccc3o2)C(=O)C1=O | 24.7 µM (inactive) | – | > 100 µM (inactive) | 42.7 µM (inactive) | > 100 µM (inactive) | > 100 µM (inactive) | > 100 µM (inactive) | 41.8 µM (inactive) | > 100 µM (inactive) | 29.5 µM (inactive) | > 100 µM (inactive) | – | > 100 µM (inactive) | 61 µM (inactive) | > 100 µM (inactive) | > 100 µM (inactive) | 35.5 | 53.7 µM (inactive) | > 100 µM (inactive) | 21.4 µM (inactive)
7 | CSc1csc(-c2ccc(-c3ccc(-c4cc(SC)cs4)s3)s2)c1 | > 100 µM (inactive) | > 100 µM (inactive) | > 100 µM (inactive) | > 100 µM (inactive) | > 100 µM (inactive) | > 100 µM (inactive) | – | > 100 µM (inactive) | > 100 µM (inactive) | – | – | > 100 µM (inactive) | > 100 µM (inactive) | > 100 µM (inactive) | > 100 µM (inactive) | > 100 µM (inactive) | > 100 | > 100 µM (inactive) | > 100 µM (inactive) | –
8 | CC(=O)C(C)C(=O)N1C(=O)N(C)C2(C)N(C)C(=O)NC12C (centres undefined) | – | > 100 µM (inactive) | > 100 µM (inactive) | > 100 µM (inactive) | > 100 µM (inactive) | > 100 µM (inactive) | > 100 µM (inactive) | > 100 µM (inactive) | > 100 µM (inactive) | > 100 µM (inactive) | – | > 100 µM (inactive) | > 100 µM (inactive) | > 100 µM (inactive) | > 100 µM (inactive) | > 100 µM (inactive) | > 100 | > 100 µM (inactive) | – | –
